Results: US7195879B2, “Method for identifying modulators of NAv ion channels” (priority 2002, dated 2007)
Values joined by “and” are separate entries in the source; they are usually repeats but may differ in a detail not shown here. Equal values may be shown once. “Also recorded” adds a separate entry of the source. Read-outs that look alike come from different tables or passages of the source.

Columns and labels:
[1] = test system: IMR-32 cells grown in the presence of RA (fast transient inward currents); assay: Whole cell voltage clamp of inward currents, IMR-32 cells grown in RA; format: cell-based, human
Protocol: The endogenous voltage gated Na currents expressed in IMR-32 cells grown in the presence or absence of 1 μM RA were measured using standard whole cell voltage clamp techniques (Hamill et al. (1981). The whole cell patch clamp technique was used to record voltage-activated currents from IMR-32 cells maintained for two or more days on 12 mm glass coverslips in the presence or absence of RA (1 μM). Cells were visualized using a Nikon Diaphot 300 with DIC Nomarski optics. The standard physiological saline (1 Ca tyrodes (“Tyrodes”) contains: 130 mM NaCl, 4 mM KCl, 1 mM CaCl2, 1.2 mM MgCl2, and 10 mM hemi-Na-HEPES (pH 7.3, 295–300 mOsm as measured using a Wescor 5500 vapor-pressure (Wescor, Inc., Logan, Utah)). Recording electrodes are fabricated from borosilicate capillary tubing (R6; Garner Glass, Claremont, Calif.), the tips are coated with dental periphery wax (Miles Laboratories, South Bend, Ind.), and have resistances of 1 to 2 MΩ when containing an intracellular saline designed to block outward currents: 140 mM CsCl, 0.483 mM CaCl2, 2 mM MgCl2, 10 mM HEPES free acid and 1 mM K4-BAPTA (100 nM free Ca^+2); pH 7.4, with dextrose added to achieve 290 mOsm). Current and voltage signals are detected and filtered at 2 kHz with an Axopatch 1D patch-clamp amplifier (Axon Instruments, Foster City, Calif.), digitally recorded with a DigiData 1200B laboratory interface (Axon Instruments) and PC compatible computer system and stored on magnetic disk for off-line analysis. Data acquisition and analysis are performed with PClamp software.
The total membrane capacitance (Cm) was determined as the difference between the maximum current after a 30 mV hyperpolarizing voltage ramp from −100 mV (generated at a rate of 10 mV/ms) and the steady state current at the final potential (−130 mV) (Dubin et al. (1999)).
Families of voltage-gated inward currents were obtained using a standard P/−4 protocol from −100 mV. Depolarizing voltage steps in increments of 10 mV were applied from a holding potential of −100 mV. Steady state inactivation was elicited by measuring the peak current at 0 mV after a 500 msec pre-pulse voltage between −140 and −20 mV in increments of 10 mV.

[2] = molecular target: Nav1.3 (Homo sapiens, UniProt Q9NY46); format: cell-based
[3] = test system: IMR-32 cells grown in the absence of RA (inward currents); format: cell-based, human
[4] = test system: Nav; format: cell-based, human
[5] = molecular target: Nav1.7 (Homo sapiens, UniProt Q15858)
[6] = test system: TTX-R inward current (calcium currents); assay: Whole cell voltage clamp, block of TTX-R inward current in IMR-32 cells; format: cell-based, human; conditions: 5 μM

Nav1.3, sequence (Q9NY46 whole entry, looked up): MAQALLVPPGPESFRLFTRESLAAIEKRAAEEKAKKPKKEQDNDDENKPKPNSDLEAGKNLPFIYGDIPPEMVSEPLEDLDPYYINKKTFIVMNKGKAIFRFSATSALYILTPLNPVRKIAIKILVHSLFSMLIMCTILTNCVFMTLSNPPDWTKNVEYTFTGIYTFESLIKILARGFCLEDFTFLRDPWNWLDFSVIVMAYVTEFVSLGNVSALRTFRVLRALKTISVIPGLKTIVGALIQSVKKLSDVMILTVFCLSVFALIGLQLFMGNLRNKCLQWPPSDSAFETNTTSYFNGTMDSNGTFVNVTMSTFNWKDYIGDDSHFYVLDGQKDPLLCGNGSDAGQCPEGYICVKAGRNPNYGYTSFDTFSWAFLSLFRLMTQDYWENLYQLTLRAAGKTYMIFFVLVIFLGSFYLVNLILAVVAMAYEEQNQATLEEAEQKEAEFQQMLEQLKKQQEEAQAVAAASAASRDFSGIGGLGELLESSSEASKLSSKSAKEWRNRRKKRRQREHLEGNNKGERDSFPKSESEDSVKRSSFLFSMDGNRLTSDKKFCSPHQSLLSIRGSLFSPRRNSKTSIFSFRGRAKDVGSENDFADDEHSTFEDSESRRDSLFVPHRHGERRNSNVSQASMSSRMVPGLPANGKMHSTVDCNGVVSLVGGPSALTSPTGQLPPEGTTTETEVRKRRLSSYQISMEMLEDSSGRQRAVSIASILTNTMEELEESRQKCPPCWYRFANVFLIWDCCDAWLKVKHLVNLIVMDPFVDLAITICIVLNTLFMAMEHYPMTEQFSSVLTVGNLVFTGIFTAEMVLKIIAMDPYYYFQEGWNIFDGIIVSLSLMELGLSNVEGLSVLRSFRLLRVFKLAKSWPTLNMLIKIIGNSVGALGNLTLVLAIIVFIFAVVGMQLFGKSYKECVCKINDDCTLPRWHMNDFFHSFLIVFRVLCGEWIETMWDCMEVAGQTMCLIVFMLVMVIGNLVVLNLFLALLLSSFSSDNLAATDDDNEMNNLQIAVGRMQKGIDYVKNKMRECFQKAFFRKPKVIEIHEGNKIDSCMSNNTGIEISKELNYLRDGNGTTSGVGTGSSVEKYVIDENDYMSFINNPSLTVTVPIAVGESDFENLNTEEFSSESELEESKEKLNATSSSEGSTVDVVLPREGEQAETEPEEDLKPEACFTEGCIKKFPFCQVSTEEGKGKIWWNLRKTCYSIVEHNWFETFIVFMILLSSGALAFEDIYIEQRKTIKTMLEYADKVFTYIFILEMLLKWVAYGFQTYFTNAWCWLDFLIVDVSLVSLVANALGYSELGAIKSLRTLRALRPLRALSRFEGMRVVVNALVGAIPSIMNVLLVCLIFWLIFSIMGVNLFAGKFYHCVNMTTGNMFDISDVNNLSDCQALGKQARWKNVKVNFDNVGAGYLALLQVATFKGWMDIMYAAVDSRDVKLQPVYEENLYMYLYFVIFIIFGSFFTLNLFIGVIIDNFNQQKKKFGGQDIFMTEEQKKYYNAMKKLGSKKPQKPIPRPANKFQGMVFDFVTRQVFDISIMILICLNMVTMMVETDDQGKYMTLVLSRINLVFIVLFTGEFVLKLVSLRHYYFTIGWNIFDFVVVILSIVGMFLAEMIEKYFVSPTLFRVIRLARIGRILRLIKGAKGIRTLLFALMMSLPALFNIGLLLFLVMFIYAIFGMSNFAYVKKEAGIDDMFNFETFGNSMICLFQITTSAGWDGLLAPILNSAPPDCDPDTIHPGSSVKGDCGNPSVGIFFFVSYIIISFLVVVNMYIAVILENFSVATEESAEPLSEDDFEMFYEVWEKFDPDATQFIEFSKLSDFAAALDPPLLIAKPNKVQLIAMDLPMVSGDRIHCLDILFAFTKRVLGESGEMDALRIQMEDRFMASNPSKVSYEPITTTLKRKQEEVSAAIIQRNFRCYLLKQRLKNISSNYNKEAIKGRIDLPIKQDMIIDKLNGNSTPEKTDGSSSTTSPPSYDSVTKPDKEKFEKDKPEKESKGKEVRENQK
Nav1.7, sequence (Q15858 whole entry, looked up): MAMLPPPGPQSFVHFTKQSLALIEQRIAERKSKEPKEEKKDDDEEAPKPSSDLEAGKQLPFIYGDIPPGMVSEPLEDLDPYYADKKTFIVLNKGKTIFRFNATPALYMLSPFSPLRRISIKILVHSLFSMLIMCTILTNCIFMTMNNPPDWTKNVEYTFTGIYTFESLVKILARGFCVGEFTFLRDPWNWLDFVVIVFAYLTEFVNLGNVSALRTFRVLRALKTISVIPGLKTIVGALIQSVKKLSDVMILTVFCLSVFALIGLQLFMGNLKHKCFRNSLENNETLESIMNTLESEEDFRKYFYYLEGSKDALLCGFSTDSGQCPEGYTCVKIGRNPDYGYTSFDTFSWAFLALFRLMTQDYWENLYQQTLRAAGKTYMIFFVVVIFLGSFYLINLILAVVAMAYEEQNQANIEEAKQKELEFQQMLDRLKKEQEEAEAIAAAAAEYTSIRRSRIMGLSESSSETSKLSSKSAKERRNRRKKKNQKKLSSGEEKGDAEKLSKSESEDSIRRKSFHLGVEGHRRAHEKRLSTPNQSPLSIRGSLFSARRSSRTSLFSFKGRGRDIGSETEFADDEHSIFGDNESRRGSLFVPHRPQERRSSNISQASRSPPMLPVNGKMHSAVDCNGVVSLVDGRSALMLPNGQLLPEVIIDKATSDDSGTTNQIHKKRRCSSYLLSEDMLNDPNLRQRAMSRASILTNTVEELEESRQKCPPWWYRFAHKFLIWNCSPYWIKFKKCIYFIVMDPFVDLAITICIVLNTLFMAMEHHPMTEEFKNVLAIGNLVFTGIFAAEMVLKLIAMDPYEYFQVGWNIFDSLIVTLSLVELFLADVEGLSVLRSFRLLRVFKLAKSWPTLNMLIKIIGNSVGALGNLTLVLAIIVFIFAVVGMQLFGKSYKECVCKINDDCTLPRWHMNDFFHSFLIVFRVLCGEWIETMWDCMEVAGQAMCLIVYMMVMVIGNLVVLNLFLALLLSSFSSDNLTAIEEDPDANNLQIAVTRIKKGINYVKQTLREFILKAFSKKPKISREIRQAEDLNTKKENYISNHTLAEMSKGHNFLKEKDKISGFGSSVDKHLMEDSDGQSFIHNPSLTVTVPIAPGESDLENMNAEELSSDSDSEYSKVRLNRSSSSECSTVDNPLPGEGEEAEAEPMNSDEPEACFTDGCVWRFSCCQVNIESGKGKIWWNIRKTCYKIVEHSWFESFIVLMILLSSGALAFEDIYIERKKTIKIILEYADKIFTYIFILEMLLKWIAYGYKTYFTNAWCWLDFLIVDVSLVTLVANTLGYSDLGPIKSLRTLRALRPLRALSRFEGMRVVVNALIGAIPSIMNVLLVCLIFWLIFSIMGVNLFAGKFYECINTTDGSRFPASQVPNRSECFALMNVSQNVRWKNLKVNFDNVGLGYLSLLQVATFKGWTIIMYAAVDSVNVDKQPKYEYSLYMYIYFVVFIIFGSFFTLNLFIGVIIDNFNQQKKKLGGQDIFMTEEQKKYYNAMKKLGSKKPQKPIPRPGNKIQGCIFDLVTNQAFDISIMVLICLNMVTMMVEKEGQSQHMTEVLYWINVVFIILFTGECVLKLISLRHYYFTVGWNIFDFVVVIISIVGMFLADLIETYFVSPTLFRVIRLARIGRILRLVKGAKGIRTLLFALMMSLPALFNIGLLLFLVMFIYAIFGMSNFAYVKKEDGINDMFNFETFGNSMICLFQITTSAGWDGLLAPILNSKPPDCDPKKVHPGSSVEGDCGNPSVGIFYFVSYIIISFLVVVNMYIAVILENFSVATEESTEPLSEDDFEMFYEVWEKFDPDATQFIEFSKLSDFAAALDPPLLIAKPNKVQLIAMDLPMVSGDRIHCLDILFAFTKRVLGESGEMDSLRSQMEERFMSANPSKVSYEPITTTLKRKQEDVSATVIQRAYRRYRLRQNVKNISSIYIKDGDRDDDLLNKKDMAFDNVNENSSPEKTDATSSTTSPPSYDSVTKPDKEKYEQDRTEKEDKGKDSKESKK

CC1=C(/C=C/C(C)=C\C=C\C(C)=C\C(=O)O)C(C)(C)CCC1 [RA, 9-cis RA]
peak inward currents ([1]; cells grown for more than two weeks in RA, tested in Tyrodes, n=24, vs -43.3 without RA, p<0.02): −75.3+/−10.6 pA/pF

NC1=N[C@H](O)[C@H]2[C@H]3O[C@]4(O)O[C@@H]([C@@H](O)[C@@]2(N1)[C@@H]4O)[C@]3(O)CO [TTX, tetrodotoxin]
block of veratridine-induced depolarization / fluorescence signal [2]: completely suppressed; also recorded: completely blocked; also recorded: nearly completely blocks
proportion of the veratridine-induced response blocked [2]: 90% and 88% and 89%
steepness of the dose response relationship [2]: 0.76 and 0.89 and 0.79
IC50 ([2]; read-out: IC50, block of veratridine-stimulated sodium influx): 3.3 nM
IC50 ([2]; read-out: concentration to half block the veratridine-induced increase in fluorescence (IC50)): 2.8 nM
TTX-S component of inward currents, proportion of total current [1]: 36+/−7%
block of inward currents [1]: 92%
effect on inward currents [1]: little effect
TTX-S component of inward currents, proportion of total current [3]: 17+/−6%
block of inward currents [3]: only partially blocked
effect on FRET signal [4]: dose dependent decreases
block of veratridine induced signal [5]: nearly completely blocks
proportion of the veratridine-induced response blocked [5]: 82% and 80%
steepness of the dose response relationship [5]: 1.0 and 1.5

COCC(=O)O[C@]1(CCN(C)CCCc2nc3ccccc3[nH]2)CCc2cc(F)ccc2[C@@H]1C(C)C [mibefradil]
block of the TTX-R current [6]: in part
